# Data published in patent US8580920B2, “Peptides useful for skin lightening” (Conopco, Inc., priority 2009, dated 2013).
# Read-outs that look alike come from different tables or passages of the source. Bridges are numbered along the chain shown (N, C = ends).
# System: human epidermal keratinocytes neonatal (HeKn) and human epidermal melanocytes neonatal darkly pigmented (HeMnDP) co-culture
# Settings: 72 hours, with respect to untreated control
# Experimental: The ability of various materials to act as skin lightening agents was measured using the melanin content assay. The experiments were carried out as per the following procedure:
# A 2:1 ratio mix containing 100 000 human epidermal keratinocytes neonatal (HeKn) (neonatal foreskin keratinocytes from Cascade Biologicals) and 50 000 human epidermal melanocytes neonatal darkly pigmented (HeMnDP) (darkly pigmenting cells neonatal foreskin melanocytes from Cascade Biologicals) were seeded per well, in a 24 well cell culture plate, to establish a co-culture system. After overnight incubation, cells were treated with fresh media containing the test actives (untreated or vehicle controls set up in parallel) and incubated for 72 hours after treatment. Then media was removed and replaced with 80 μl of dimethyl sulphoxide (DMSO). The plate was further incubated with DMSO for 1 hour at 65° C., after which the well contents were triturated and the same sample used to assay both for melanin content (read at 450 nm in a plate reader) and protein estimation (regular BiCinchoninic Acid method, kit from Peirce). % reduction in melanin was with respect to untreated control.
molecule,measurement,setting,value
"O=c1cc(CO)occ1O [Kojic acid, reference compound]",% REDUCTION IN MELANIN CONTENT,100 μM,19 (±1) %
-Gly-Cys-His-Gly-His-Pro-Phe-Ala-Pro-Cys-Ala- [Peptide 2] (H-GCHGHPFAPCA-OH; disulfide 2-10; N-terminus and C-terminus assumed; SMILES C[C@H](NC(=O)[C@@H]1CSSC[C@H](NC(=O)CN)C(=O)N[C@@H](Cc2c[nH]cn2)C(=O)NCC(=O)N[C@@H](Cc2c[nH]cn2)C(=O)N2CCC[C@H]2C(=O)N[C@@H](Cc2ccccc2)C(=O)N[C@@H](C)C(=O)N2CCC[C@H]2C(=O)N1)C(=O)O),% REDUCTION IN MELANIN CONTENT,46 μM,12 (±10) %
-Gly-Cys-Leu-Ser-Arg-His-Val-Leu-Gln-Cys-Ala- [Peptide 1],% REDUCTION IN MELANIN CONTENT,42 μM,5 (±2) %
same,% REDUCTION IN MELANIN CONTENT,420 μM,22 (±3) %
